The test system of data set [1] is 4T1 mouse breast tumor cells. The data set can be described thus: Boyden chamber cell migration assay with 4T1 tumor cells. Format: cell-based. The settings on record: for IC50: chamber cell migration, 6-8 h, average of three experiments, read-out: IC50 (4T1 tumor cells). The procedure:
The biological evaluation of the compounds (in terms of their ability to inhibit cell migration) was accomplished in a Boyden chamber cell migration assay. In this assay, mouse breast tumor cells (4T1 cells) or endothelial cells (HUVECs) are seeded on the upper chamber of a transwell insert. Growth factor-containing serum is added to the lower chamber.
Chamber Cell Migration Assay (Tables 4 and 6): Cell migrations were assayed with Boyden chambers [8.0 μm pore size, polyethylene terephthalate membrane, FALCON cell culture insert (Becton-Dickinson)]. 4T1 mouse breast tumor cells or HUVECs were trypsinized and counted. 300 μl of 5-10×10^4 cells in serum-free medium was added to the upper chamber and 500 μl of medium with 10% fetal bovine serum (FBS) was added to the lower chamber. […] Cells on the inside of the transwell inserts were removed with a cotton swab, and cells on the underside of the insert were fixed and stained. Photographs of three random regions were taken and the number of cells was counted to calculate the average number of cells that have transmigrated.

Data set [2] deals with HUVECs (human umbilical vein endothelial cells). The experiment in a line: Boyden chamber cell migration assay with HUVECs. Format: cell-based. To be noted: chamber cell migration; average of three experiments; read-out: IC50 (HUVEC). The procedure: Chamber Cell Migration Assay (Tables 4 and 6): Cell migrations were assayed with Boyden chambers [8.0 μm pore size, polyethylene terephthalate membrane, FALCON cell culture insert (Becton-Dickinson)]. 4T1 mouse breast tumor cells or HUVECs were trypsinized and counted. 300 μl of 5-10×10^4 cells in serum-free medium was added to the upper chamber and 500 μl of medium with 10% fetal bovine serum (FBS) was added to the lower chamber. The transwells were incubated for 6-8 h at 37° C. with different concentrations of chemical compound in both upper and lower chamber. Cells on the inside of the transwell inserts were removed with a cotton swab, and cells on the underside of the insert were fixed and stained. Photographs of three random regions were taken and the number of cells was counted to calculate the average number of cells that have transmigrated.

Data set [3] concerns 4T1 tumor lung metastasis. The experiment in a line: 4T1 tumor lung metastasis in syngeneic mice (6-thioguanine clonogenic assay). Format: in vivo, BALB/c mice. To be noted: for lung metastasis colonies: lungs Day 28, mean and standard deviation. The source says:
Inhibition of metastasis of mouse breast tumors by migrastatin alogs in mice. 4T1 mouse breast tumor cell line was isolated from a single spontaneously arising mammary tumor from a BALB/BfC3H mouse (MMTV+).^62 The 4T1 tumor closely mimics human breast cancer in its anatomical site, immunogenecity, growth characteristics, and metastatic properties.^63 From the mammary gland, 4T1 tumor spontaneously metastasizes to a variety of target organs including the lung, bone, brain, and liver through primarily a hematogenous rout.^64
To assess the efficacy of therapeutic application of migrastatin analogs in the 4T1 murine mammary carcinoma models, we administered migrastatin analogs (macroketone and macrolactam) to BALB/c mice carrying the 4T1 tumors.
Female BALB/c mice (6-8 week old) were purchased from the Jackson Laboratory (Bar Harbor, Me.). All mice were housed at the Weill Medical College of Cornell University Animal Facilities in accordance with the Principles of Animal Care (NIH publication no. 85-23, revised 1985). 4T1 tumor cells (1×10^5) were injected subcutaneously into the abdominal mammary gland area of mice in 0.1 ml of a single-cell suspension in phosphate buffered saline (PBS) on Day 0. The dosage of tumor implantation was empirically determined to give rise to tumor of ˜10 mm in diameter in untreated wild type mice in 21-23 days. On Day 7, when the tumors averaged in size ˜4-5 mm in diameter, migrastatin analogs or control PBS saline were given every day by intraperitoneal injection at 10 mg/kg or 20 mg/kg per mouse until Day 25. On Day 28, the mice were sacrificed. This regiment of migrastatin analogs was well tolerated with no signs of overt toxicity. Every group included five mice. Primary tumors were measured using electronic calipers on the day when the mice were sacrificed. Tumor size was the square root of the product of two perpendicular diameters. Numbers of metastatic 4T1 cells in lung were determined by the clonogenic assay.^63 In brief, lungs were removed from each mouse on Day 28, finely minced and digested in 5 ml of enzyme cocktail containing 1× PBS and 1 mg/ml collagenase type IV for 2 hours at 37° C. on a platform rocker. After incubation, samples were filtered through 70 uM nylon cell strainers and washed twice with PBS. Resulting cells were suspended and plated serially diluted in 10 cm tissue culture dishes in medium RPMI1640 containing 60 uM thioguanine for clonogenic growth. 6-Thioguanine-resistant tumor cells formed foci after 14 days, at which time they were fixed with methanol and stained with 0.03% methylene blue for counting.
Treatment 4T1 tumor lung metaotmis in smgencie mice with Kigrastatin analogs (See, FIG. 4). 4T1 tumor cells (10^5) were injected s.c. in the abdominal mammary gland with 0.1 ml of a single-cell suspension. Macroketone or macrolactam at 10 mg/kg or 20 mg/kg was given i.p. on Day 7 when the tumor size was about 5 mm in diameter, and everyday until Day 25. On Day 28, the mice were sacrificed. Each group comprised five mice. Lung metastasis was measured by the 6-thiogunine clonogenic assay. The mean and standard deviation are presented. In the control group (daily PBS injection), there were 61300±18900 colonies.

For data set [4] the following is noted: rcm bond, Grubbs-II, toluene, 111.0 °C, 0.25 h.
A short description of data set [5]: Mouse plasma stability study (HPLC). The class given is in vitro ADME. The method, then:
Mouse Plasma Stability Studies (Table 5): HPLC conditions: The sample is injected and separated using an Inertsil ODS3 6u 3×150 mm column with a mobile phase of MeCN and water (50% for migrastatin) at a flow of 0.4 mL/min, monitored at 220 nm at 0.02 AUFS (the retention time for migrastatin is ca. 4 min, the identity of this peak was confirmed by mass spectral analysis). Incubation and sample preparation conditions: A solution (ca. 30 mM) of chemical compound (Table 5) in DMSO is prepared. 2 μL of the solution is added to a mixture containing 200 μL of mouse plasma and 800 μL of PBS. The resulting solution is put into a water bath at 37° C., and 100 μL of sample is withdrawn at 10, 20, 30, 45, and 60 min. The precipitate is removed by centrifugation and 20 μL of the supernatant is injected onto the HPLC.

Data set [6] has as its system HUVEC. The data set can be described thus: Tube formation assay (preliminary, Table 1). Format: cell-based, human. The settings on record: minimal concentration causing definite disturbance of tube network, 16-18 h, tested 200, 100, 50, 25, 10 μM. The method, then:
1. Tube Formation Assay (Table 1):
A protocol was designed based on the instructions from the provider (BD Bioscience, San Jose, Calif.). Briefly, wells of a 48 well culture dish were covert with 150 μL matrigel and the matrigel was gelatinized for 30 min at 37° C. A 80-90% confluent HUVEC (BD Bioscience, San Jose, Calif.) culture was trypsin treated, the detached cells were collected by centrifugation and resuspended in EGM-2 media (BD Bioscience, San Jose, Calif.). Cell concentration was adjusted to 100.000 cells/mL. 400 μL of the cell suspension were filled in the matrigel coated wells, and a solution of the inhibitor was added to the intended final concentration. The plates were incubated at 37° C. with 5% CO2 for 16-18 h. Media was removed, and the matrigel surface was washed twice with 500 μL PBS before cells were labeled with 250 μL 8 μM Calcein AM (Pierce, Rockford, Ill.) in PBS for 30 min at 37° C. After two additional washing steps (500 μL PBS) cells were visualized under an inverted microscope. Fluorescence was excited at 488 nm and recorded at 538 nm. The minimum effect concentration was defined as the minimal inhibitor concentration that caused a definite disturbance of the complexity of the formed tube network.

Data set [7] concerns adherent cells (e.g. KYSE-520 cells). The data set can be described thus: Wound healing (scratch) assay (preliminary, Table 2). The class given is cell-based. To be noted: 28 to 30 h, compared to 100 μM Migrastatin, tested 200, 100, 50, 25, 10 μM. The method, then:
2. Wound Healing Assay (Table 2)
The wound healing assay was performed based on the method described by Nakae et al. (Nakae et al., J. Antibiotics (2000), 53, 1130-1136). Briefly, adherent cells were grown in a suitable media to confluence (e.g. KYSE-520 cells in RPMI-1640 with 10% FBS). Cells were starved for 24 h in serum free media. A scratch (ca. 0.5 mm) was applied and the cell layer was washed twice with PBS after removal of the media. Fresh, serum free media with the test compound at the desired concentration was added and the cells were incubated for 28 to 30 h at 37° C., 5% CO2. The scratch size was compared to that observed for cells exposed to 100 μM Migrastatin. Test compounds associated with a scratch size equal to or larger than that observed for cells exposed to 100 μM Migrastatin were deemed to have cell migration inhibitory activity at least equal to Migrastatin.

Read-outs that look alike come from different tables or passages of the source.

As usually defined, the IC50 is the concentration that gives 50% inhibition. For `CO[C@H]1/C=C/CCCCC(O)(C(F)(F)F)CC/C(C)=C\[C@@H](C)[C@@H]1O` (some centres unmarked) [macrocyclic CF3-alcohol (71), Macrocyclic CF3-Alcohol], the “effect on 4T1 tumor cell migration in the chamber assay, in words” value in data set [1] (chamber assay) is reported as “displays the same activity profile as macroketone 60”. The IC50 in data set [1] turned out to be 101 nM. `CO[C@H]1/C=C/CCCCC(=NO)CC/C(C)=C\[C@@H](C)[C@@H]1O` [macrooxime (72), Macrooxime]: the IC50 in data set [1] was 2300 nM. With `COC1C=CCCCCC(=O)NCC(C)=CC(C)C1O` (centres unmarked) [macrolactam (55), Macrolactam], the IC50 in data set [1] was 255 nM; in data set [2], 18000 nM. In addition, the “inhibition of lung metastasis” value in data set [3] (10 mg/kg i.p. daily Day 7-25) and in data set [3] (20 mg/kg i.p. daily Day 7-25) was about 91% each time. In addition, the lung metastasis colonies was 5333±1778 colonies in data set [3] (10 mg/kg i.p. daily Day 7-25) and 5675±6263 colonies in data set [3] (20 mg/kg i.p. daily Day 7-25). For the molecule “N-Methyl-2,3-Dihydromigrastatin [N-methyl-2,3-dihydromigrastatin (42)]”, in data set [1], the half-maximal inhibitory concentration (IC50) was 7000 nM. The same measure, in the same setting: the same measure for `CO[C@H]1/C=C/CCCCC(=O)OC/C(C)=C\[C@@H](C)[C@@H]1OC(C)=O` [acetylated macrolactone (49), Acetylated Macrolactone]: 192 nM. Regarding `CN1c2ccccc2C(=O)N2CCc3c([nH]c4ccccc34)[C@H]21` [evodiamine, reference compound], the IC50 in data set [1] (Mus musculus) came to 315 nM. `CO[C@H]1C=CCC/C=C/C(=O)O[C@H]([C@H](C)C(=O)CCCC2CC(=O)NC(=O)C2)/C(C)=C\[C@@H](C)[C@@H]1O[Si](C)(C)C(C)(C)C` showed a ring closure, yield of all isomers in data set [4] (from C=CCC/C=C/C(=O)O[C@@H](/C(C)=C\[C@@H](C)[C@H](O[Si](C)(C)C(C)(C)C)[C@H](C=C)OC)[C@H](C)C(=O)CCCC1CC(=O)NC(=O)C1, 0.46 mM) of 69%. Turning to `CO[C@H]1/C=C/CCCCC(O)CC/C(C)=C\[C@@H](C)[C@@H]1O` (some centres unmarked) [macrocyclic secondary alcohol (69), Macrocyclic Secondary Alcohol], the IC50 in data set [1] worked out at 8900 nM. For the molecule `COC1C=CCCC=CC(=O)OCC(C)=CC(C)C1O` (centres unmarked) [migrastatin core (45), Migrastatin Core], in data set [5] (mouse plasma/PBS, 37° C., sampled up to 60 min), the “stability (t1/2, mouse plasma)” value is 20 min. Further, the “stability (mouse plasma), in words” value in data set [5] (stable = intensity of HPLC signal unchanged over 60 min of incubation) is recorded as “hydrolyzed rapidly”. Further, the IC50 in data set [2] came to 150 nM. Molecule `CO[C@H]1C=CCCCCC(=O)NC/C(C)=C\[C@@H](C)[C@@H]1O[Si](C)(C)C(C)(C)C` showed a ring closure, yield of all isomers in data set [4] (from C=CCCCCC(=O)NC/C(C)=C\[C@@H](C)[C@H](O[Si](C)(C)C(C)(C)C)[C@H](C=C)OC, 0.709 mM) of 60%. As for `COC1C=CCCCCC(=O)OC(C(C)C(=O)CCCC2CC(=O)NC(=O)C2)C(C)=CC(C)C1O` (centres unmarked) [2,3-dihydromigrastatin (41), 2,3-Dihydromigrastatin], the results for the Minimum effect concentration in data set [6] and in data set [7] were 50 µM and 25 µM, respectively. Further, in data set [1], the IC50 came to 10000 nM.

As to N-Methyl-migrastatin, the Minimum effect concentration was 200 µM in data set [6] and 100 µM in data set [7].

Take `CO[C@@H](/C=C/CCCCC(=O)O)[C@@H](O)[C@H](C)/C=C(/C)CO` [hydrolyzed core (51), Hydrolyzed Core]: the IC50 in data set [1] is 378 nM. As for `CO[C@H]1C=CCCCCC(=O)O[C@H]([C@H](C)C(=O)CCCC2CC(=O)NC(=O)C2)/C(C)=C\[C@@H](C)[C@@H]1O[Si](C)(C)C(C)(C)C`, in data set [4] (from C=CCCCCC(=O)O[C@@H](/C(C)=C\[C@@H](C)[C@H](O[Si](C)(C)C(C)(C)C)[C@H](C=C)OC)[C@H](C)C(=O)CCCC1CC(=O)NC(=O)C1, 0.48 mM), the ring closure, yield of all isomers worked out at 79%. Take `CO[C@H]1/C=C/CCCCC(C)(O)CC/C(C)=C\[C@@H](C)[C@@H]1O` (some centres unmarked) [macrocyclic tertiary alcohol (70), Marocyclic Tertiary Alcohol]: the IC50 in data set [1] turned out to be 3100 nM.
